In this experiment the target is BACE Enzyme (Homo sapiens, UniProt P56817). The experiment can be described thus: BACE Enzyme Potency (Table 12). The experiment is classed as biochemical. The conditions noted are these: Table 12; class symbols; read-out: BACE Enzyme Potency.
Chain of BACE Enzyme (P56817 46-501, species assumed): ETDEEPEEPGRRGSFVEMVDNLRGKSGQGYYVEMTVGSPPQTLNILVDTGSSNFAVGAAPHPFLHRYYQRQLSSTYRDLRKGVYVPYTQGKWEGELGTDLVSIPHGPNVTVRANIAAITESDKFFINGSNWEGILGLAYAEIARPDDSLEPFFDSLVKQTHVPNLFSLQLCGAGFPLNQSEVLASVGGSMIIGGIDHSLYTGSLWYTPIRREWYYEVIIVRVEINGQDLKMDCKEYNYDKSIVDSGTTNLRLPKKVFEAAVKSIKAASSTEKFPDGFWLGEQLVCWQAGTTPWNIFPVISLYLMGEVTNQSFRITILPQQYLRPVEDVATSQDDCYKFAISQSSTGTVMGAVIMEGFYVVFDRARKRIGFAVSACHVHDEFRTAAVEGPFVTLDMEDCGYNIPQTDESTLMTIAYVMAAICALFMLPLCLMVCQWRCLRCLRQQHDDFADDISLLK
Turning to `CN1CCN(c2ccc(-c3csc(Nc4ccc(Cl)cc4)n3)cc2)CC1` [Compound 378], the IC50 is 0.2 to 1 µM. Take `CSc1cccc(Nc2nc(-c3ccc(N4CCCC4)cc3)cs2)c1` [Compound 379]: the IC50 lay within 0.2 to 1 µM. Consider `CCN(CC)c1ccc(Nc2nc(-c3ccc(-n4cnc(C)c4)cc3)cs2)c(C)c1` [Compound 380], for which the IC50 is 1.1 to 5 µM. Turning to `CCN(c1ccc(N2CCOCC2)cc1)c1nc(-c2ccc(-n3ccnc3)cc2)cs1` [Compound 381], the IC50 was in the range of 5.1 to 10 µM. For `CCOC(=O)c1ccc(Nc2nc(-c3ccc(N4CCN(C)CC4)cc3)cs2)cc1` [Compound 382], the IC50 is 0.2 to 1 µM.

These data come from patent US8017629B2, “Compounds and uses thereof in modulating amyloid β” (Neurogenetic Pharmaceuticals, Inc., priority 2003, dated 2011).
